{"source": "ChEMBL document CHEMBL4840335", "about": "“Rational Design and Development of Novel CDK9 Inhibitors for the Treatment of Acute Myeloid Leukemia” (J Med Chem, 2021)", "key": {"[1]": {"test_system": "MV4-11", "assay": "Induction of apoptosis in human MV4-11 cells assessed as live cells at 50 nM measured after 24 hrs by annexinV-FITC/propidium iodide staining based flow cytometry (reference value: 95.14 %)", "format": "functional"}, "[2]": {"assay": "Observed AUC infinity in ICR mouse at 2 mg/kg, iv measured up to 24 hrs", "format": "ADME, organism-based", "design": "route intravenous, dose 2 mg/kg, time <=24", "conditions": "in vivo"}, "[3]": {"test_system": "OCI-Ly10", "assay": "Antiproliferative activity against human OCILY10 cells assessed as reduction in cell proliferation measured after 3 to 7 days by MTS assay", "format": "functional, cell-based"}, "[4]": {"test_system": "MV4-11", "assay": "Induction of apoptosis in human MV4-11 cells assessed as live cells at 10 nM measured after 24 hrs by annexinV-FITC/propidium iodide staining based flow cytometry (reference value: 95.14 %)", "format": "functional"}, "[5]": {"test_system": "CCRF-CEM", "assay": "Antiproliferative activity against human CCRF-CEM cells assessed as reduction in cell proliferation measured after 3 to 7 days by MTS assay", "format": "functional, cell-based"}, "[6]": {"test_system": "Kasumi 1", "assay": "Antiproliferative activity against human Kasumi 1 cells assessed as reduction in cell proliferation measured after 3 to 7 days by MTS assay", "format": "functional, cell-based"}, "[7]": {"target": "Serine/threonine-protein kinase Chk2 (Homo sapiens, UniProt O96017)", "sequence (O96017 whole entry)": "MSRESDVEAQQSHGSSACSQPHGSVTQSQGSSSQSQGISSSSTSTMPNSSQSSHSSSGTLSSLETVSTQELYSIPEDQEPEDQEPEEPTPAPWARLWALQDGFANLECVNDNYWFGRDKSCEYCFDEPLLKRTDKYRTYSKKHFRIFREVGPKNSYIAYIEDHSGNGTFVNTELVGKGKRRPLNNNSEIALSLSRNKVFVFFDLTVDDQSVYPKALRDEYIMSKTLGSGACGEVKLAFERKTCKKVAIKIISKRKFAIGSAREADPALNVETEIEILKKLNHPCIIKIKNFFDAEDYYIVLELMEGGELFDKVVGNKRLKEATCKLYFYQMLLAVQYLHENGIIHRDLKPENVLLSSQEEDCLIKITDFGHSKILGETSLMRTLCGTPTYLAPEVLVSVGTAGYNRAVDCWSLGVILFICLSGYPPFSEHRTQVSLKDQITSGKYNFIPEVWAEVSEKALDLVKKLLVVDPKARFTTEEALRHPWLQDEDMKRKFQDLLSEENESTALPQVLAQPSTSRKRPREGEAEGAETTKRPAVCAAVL", "assay": "Inhibition of CHK2 (unknown origin)"}, "[8]": {"assay": "Cmax in ICR mouse at 20 mg/kg, po measured up to 24 hrs", "format": "ADME, organism-based", "design": "route oral, dose 20 mg/kg, time <=24", "conditions": "in vivo"}, "[9]": {"test_system": "MM1.S", "assay": "Antiproliferative activity against human MM1.S cells assessed as reduction in cell proliferation measured after 3 to 7 days by MTS assay", "format": "functional, cell-based"}, "[10]": {"test_system": "MV4-11", "assay": "Antitumor activity against human MV4-11 cells xenografted in Nu/Nu mouse assessed as change in tumor volume at 7.5 mg/kg, po administered for 21 consecutive days by digital caliper method and measured on day 22 (reference value: 127 +/- 16 mm3)", "format": "functional", "conditions": "time 22 day"}, "[11]": {"assay": "AUClast in ICR mouse at 2 mg/kg, iv measured up to 24 hrs", "format": "ADME, organism-based", "design": "route intravenous, dose 2 mg/kg, time <=24", "conditions": "in vivo"}, "[12]": {"test_system": "MV4-11", "assay": "Induction of apoptosis in human MV4-11 cells assessed as downregulation of BCL2 at 1 to 10 uM measured after 12 hrs by Western blot analysis", "format": "functional, cell-based", "conditions": "dose 1-10 µM"}, "[13]": {"test_system": "TMD8", "assay": "Antiproliferative activity against human TMD8 cells assessed as reduction in cell proliferation measured after 3 to 7 days by MTS assay", "format": "functional, cell-based"}, "[14]": {"target": "Fibroblast growth factor receptor 4 (Homo sapiens, UniProt P22455)", "assay": "Inhibition of FGFR4 (unknown origin)"}, "[15]": {"target": "Cyclin-dependent kinase 4 (Homo sapiens, UniProt P11802)", "assay": "Inhibition of CDK4 (unknown origin)"}, "[16]": {"target": "Vascular endothelial growth factor receptor 1 (Homo sapiens, UniProt P17948)", "sequence (P17948 whole entry)": "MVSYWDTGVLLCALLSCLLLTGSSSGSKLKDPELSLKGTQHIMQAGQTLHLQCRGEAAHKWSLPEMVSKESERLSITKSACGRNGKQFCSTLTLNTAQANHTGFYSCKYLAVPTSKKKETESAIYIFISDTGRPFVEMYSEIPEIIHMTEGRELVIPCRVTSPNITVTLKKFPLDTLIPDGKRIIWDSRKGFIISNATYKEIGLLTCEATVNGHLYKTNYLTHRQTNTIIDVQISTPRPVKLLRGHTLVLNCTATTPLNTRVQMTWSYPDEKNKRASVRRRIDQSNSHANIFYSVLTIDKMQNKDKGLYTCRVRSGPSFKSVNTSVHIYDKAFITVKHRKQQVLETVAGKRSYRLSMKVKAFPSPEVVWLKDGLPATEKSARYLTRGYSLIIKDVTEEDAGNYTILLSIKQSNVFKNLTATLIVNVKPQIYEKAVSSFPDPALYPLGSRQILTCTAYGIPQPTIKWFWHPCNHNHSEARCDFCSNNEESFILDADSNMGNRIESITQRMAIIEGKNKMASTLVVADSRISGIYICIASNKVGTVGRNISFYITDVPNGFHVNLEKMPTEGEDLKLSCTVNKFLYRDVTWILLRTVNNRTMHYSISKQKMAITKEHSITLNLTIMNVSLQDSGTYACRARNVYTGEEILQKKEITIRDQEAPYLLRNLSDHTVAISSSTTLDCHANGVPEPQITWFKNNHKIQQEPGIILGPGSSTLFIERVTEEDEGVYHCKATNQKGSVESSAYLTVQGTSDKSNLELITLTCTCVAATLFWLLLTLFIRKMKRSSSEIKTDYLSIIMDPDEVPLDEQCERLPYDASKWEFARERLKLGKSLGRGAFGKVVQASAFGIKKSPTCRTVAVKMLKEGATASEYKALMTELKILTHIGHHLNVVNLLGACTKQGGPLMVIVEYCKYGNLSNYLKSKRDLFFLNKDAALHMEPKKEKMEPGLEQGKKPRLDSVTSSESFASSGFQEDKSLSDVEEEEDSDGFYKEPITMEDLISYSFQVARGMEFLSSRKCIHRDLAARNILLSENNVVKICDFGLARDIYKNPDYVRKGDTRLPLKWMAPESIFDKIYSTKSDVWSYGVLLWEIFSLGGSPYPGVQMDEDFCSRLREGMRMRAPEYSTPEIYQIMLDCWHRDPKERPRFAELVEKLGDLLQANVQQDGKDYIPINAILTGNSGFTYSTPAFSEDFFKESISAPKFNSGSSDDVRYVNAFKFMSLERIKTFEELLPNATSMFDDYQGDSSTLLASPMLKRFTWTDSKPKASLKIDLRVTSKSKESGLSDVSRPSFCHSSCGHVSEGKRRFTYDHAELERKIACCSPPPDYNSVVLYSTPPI", "assay": "Inhibition of VEGFR1 (unknown origin)"}, "[17]": {"assay": "Oral bioavailability in ICR mouse at 20 mg/kg measured up to 24 hrs", "format": "ADME, organism-based", "conditions": "in vivo"}, "[18]": {"test_system": "MV4-11", "assay": "Antiproliferative activity against human MV4-11 cells assessed as reduction in cell proliferation measured after 3 to 7 days by MTS assay", "format": "functional, cell-based"}, "[19]": {"target": "Cyclin-dependent kinase 9 (Homo sapiens) (UniProt P50750)", "sequence (P50750 whole entry)": "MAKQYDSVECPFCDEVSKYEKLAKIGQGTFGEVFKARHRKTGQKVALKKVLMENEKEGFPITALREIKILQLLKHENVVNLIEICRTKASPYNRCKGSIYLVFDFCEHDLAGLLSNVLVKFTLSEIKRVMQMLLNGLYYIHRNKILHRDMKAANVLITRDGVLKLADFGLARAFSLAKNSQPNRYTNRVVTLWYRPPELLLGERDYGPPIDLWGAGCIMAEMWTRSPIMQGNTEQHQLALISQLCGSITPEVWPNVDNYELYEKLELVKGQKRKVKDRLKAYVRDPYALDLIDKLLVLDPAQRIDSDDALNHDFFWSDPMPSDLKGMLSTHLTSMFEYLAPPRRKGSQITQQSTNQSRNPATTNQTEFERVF", "assay": "Inhibition of CDK9 in human MV4-11 cells assessed as reduction in RNAP2 phosphorylation at ser5 residues at 1 to 10 uM after 12 hrs by Western blot analysis", "format": "cell-based", "conditions": "dose 1-10 µM"}, "[20]": {"test_system": "MV4-11", "assay": "Induction of apoptosis in human MV4-11 cells assessed as necrotic cells at 10 nM measured after 24 hrs by annexinV-FITC/propidium iodide staining based flow cytometry (reference value: 1.03 %)", "format": "functional"}, "[21]": {"assay": "MRT in ICR mouse at 2 mg/kg, iv measured up to 24 hrs", "format": "ADME, organism-based", "conditions": "in vivo"}, "[22]": {"target": "Platelet-derived growth factor receptor alpha (Homo sapiens, UniProt P16234)", "assay": "Inhibition of PDGFRA (unknown origin)"}, "[23]": {"target": "Proto-oncogene tyrosine-protein kinase Src (Homo sapiens, UniProt P12931)", "sequence (P12931 2-536 limits assumed)": "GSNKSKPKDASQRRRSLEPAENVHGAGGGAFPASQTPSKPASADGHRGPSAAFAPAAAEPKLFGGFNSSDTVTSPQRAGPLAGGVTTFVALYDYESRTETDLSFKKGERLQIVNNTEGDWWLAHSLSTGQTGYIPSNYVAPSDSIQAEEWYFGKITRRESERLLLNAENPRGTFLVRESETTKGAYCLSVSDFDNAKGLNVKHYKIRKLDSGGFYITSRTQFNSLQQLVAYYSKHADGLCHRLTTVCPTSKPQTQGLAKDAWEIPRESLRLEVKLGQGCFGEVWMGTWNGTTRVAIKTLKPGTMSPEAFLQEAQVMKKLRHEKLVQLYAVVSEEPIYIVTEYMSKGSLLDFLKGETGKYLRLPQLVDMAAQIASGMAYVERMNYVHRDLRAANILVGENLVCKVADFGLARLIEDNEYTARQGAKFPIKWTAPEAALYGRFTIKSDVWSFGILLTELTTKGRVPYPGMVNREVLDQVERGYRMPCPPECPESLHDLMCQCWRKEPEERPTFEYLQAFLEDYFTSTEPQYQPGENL", "assay": "Inhibition of SRC (unknown origin)"}, "[24]": {"target": "Tyrosine-protein kinase BTK (Homo sapiens, UniProt Q06187)", "assay": "Inhibition of BTK (unknown origin)"}, "[25]": {"assay": "AUClast in ICR mouse at 20 mg/kg, po measured up to 24 hrs", "format": "ADME, organism-based", "design": "route oral, dose 20 mg/kg, time <=24", "conditions": "in vivo"}, "[26]": {"target": "Serine/threonine-protein kinase Chk1 (Homo sapiens, UniProt O14757)", "sequence (O14757 whole entry)": "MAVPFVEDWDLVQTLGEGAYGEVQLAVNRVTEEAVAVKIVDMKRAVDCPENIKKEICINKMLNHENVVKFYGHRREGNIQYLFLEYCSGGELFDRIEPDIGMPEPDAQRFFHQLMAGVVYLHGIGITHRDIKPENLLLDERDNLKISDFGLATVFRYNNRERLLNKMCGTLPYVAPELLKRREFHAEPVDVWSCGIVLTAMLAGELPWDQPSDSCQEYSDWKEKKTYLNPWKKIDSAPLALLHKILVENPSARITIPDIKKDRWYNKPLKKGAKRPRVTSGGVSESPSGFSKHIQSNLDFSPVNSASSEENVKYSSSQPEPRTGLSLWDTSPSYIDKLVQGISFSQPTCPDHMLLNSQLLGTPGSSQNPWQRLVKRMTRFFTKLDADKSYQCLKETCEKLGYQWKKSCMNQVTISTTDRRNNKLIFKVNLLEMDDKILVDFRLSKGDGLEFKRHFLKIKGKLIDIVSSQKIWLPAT", "assay": "Inhibition of CHK1 (unknown origin)"}, "[27]": {"target": "Cyclin-dependent kinase 9 (Homo sapiens) (UniProt P50750)", "assay": "Inhibition of CDK9 in human MV4-11 cells assessed as reduction in RNAP2 phosphorylation at ser2 residues at 1 to 10 uM after 12 hrs by Western blot analysis", "format": "cell-based", "conditions": "dose 1-10 µM"}, "[28]": {"test_system": "RPMI-8226", "assay": "Antiproliferative activity against human RPMI-8226 cells assessed as reduction in cell proliferation measured after 3 to 7 days by MTS assay", "format": "functional, cell-based"}, "[29]": {"target": "ALK tyrosine kinase receptor (Homo sapiens, UniProt Q9UM73)", "assay": "Inhibition of ALK (unknown origin)"}, "[30]": {"test_system": "MV4-11", "assay": "Induction of apoptosis in human MV4-11 cells assessed as early apoptotic cells at 50 nM measured after 24 hrs by annexinV-FITC/propidium iodide staining based flow cytometry (reference value: 0.79 %)", "format": "functional"}, "[31]": {"target": "Platelet-derived growth factor receptor beta (Homo sapiens, UniProt P09619)", "sequence (P09619 whole entry)": "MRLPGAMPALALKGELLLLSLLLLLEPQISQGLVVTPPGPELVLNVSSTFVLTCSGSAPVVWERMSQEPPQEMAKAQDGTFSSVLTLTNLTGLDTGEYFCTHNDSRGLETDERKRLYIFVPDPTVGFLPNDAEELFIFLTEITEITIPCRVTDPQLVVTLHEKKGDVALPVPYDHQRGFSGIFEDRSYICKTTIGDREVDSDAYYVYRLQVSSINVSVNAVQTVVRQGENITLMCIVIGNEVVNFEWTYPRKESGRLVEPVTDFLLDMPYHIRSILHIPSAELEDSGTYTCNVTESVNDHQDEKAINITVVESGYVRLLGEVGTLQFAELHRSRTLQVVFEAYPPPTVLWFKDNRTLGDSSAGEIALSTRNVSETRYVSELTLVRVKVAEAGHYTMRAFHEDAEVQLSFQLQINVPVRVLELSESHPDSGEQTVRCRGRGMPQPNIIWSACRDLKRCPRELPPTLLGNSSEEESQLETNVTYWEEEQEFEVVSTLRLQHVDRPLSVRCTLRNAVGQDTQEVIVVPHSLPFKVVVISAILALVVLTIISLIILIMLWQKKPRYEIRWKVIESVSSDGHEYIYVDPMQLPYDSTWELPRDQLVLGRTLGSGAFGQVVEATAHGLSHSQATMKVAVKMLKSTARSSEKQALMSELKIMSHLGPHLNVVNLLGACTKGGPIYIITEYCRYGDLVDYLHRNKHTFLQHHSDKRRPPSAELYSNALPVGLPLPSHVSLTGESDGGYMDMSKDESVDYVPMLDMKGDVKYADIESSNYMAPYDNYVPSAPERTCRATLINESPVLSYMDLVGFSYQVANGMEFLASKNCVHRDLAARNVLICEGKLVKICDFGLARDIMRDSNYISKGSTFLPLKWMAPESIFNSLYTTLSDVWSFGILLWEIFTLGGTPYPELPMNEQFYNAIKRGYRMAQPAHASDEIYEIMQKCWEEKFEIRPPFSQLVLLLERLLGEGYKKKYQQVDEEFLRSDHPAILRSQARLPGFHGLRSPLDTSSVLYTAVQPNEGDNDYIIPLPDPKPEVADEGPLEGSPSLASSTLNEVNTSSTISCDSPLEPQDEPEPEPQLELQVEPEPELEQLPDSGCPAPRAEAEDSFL", "assay": "Inhibition of PDGFRB (unknown origin)"}, "[32]": {"test_system": "HL-60", "assay": "Antiproliferative activity against human HL-60 cells assessed as reduction in cell proliferation measured after 3 to 7 days by MTS assay", "format": "functional, cell-based"}, "[33]": {"test_system": "MV4-11", "assay": "Antitumor activity against human MV4-11 cells xenografted in Nu/Nu mouse assessed as relative tumor volume at 7.5 mg/kg, po administered for 21 consecutive days by digital caliper method", "format": "functional", "conditions": "time 22 day"}, "[34]": {"target": "Cyclin-dependent kinase 6 (Homo sapiens, UniProt Q00534)", "sequence (Q00534 whole entry)": "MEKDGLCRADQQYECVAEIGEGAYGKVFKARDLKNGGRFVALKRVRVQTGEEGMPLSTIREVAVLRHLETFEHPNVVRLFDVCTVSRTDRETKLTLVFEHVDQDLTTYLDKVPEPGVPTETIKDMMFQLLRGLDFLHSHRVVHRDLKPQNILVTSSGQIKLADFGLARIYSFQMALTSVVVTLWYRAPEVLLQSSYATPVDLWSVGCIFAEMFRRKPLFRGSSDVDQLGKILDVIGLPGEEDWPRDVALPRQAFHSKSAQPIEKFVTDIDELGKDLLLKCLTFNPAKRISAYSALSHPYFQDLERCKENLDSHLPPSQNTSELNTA", "assay": "Inhibition of CDK6 (unknown origin)"}, "[35]": {"target": "Fibroblast growth factor receptor 1 (Homo sapiens, UniProt P11362)", "assay": "Inhibition of FGFR1 (unknown origin)"}, "[36]": {"target": "Cyclin-dependent kinase 7 (Homo sapiens, UniProt P50613)", "sequence (P50613 whole entry)": "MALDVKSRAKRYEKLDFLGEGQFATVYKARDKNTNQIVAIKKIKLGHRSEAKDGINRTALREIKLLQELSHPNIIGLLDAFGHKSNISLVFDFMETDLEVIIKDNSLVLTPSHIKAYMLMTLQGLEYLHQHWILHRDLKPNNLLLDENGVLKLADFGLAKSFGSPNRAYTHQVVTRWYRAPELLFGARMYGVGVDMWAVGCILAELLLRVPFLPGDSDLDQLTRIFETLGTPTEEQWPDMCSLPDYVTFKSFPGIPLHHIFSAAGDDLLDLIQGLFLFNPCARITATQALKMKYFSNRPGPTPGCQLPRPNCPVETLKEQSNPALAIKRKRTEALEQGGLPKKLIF", "assay": "Inhibition of CDK7 (unknown origin)"}, "[37]": {"target": "Ephrin type-A receptor 2 (Homo sapiens, UniProt P29317)", "assay": "Inhibition of EPHA2 (unknown origin)"}, "[38]": {"target": "Vascular endothelial growth factor receptor 2 (Homo sapiens, UniProt P35968)", "assay": "Inhibition of KDR (unknown origin)"}, "[39]": {"test_system": "MV4-11", "assay": "Induction of apoptosis in human MV4-11 cells assessed as necrotic cells at 50 nM measured after 24 hrs by annexinV-FITC/propidium iodide staining based flow cytometry (reference value: 1.03 %)", "format": "functional"}, "[40]": {"target": "Wee1-like protein kinase (Homo sapiens, UniProt P30291)", "assay": "Inhibition of WEE1 (unknown origin)"}, "[41]": {"assay": "Antiproliferative activity against human MINO cells assessed as reduction in cell proliferation measured after 3 to 7 days by MTS assay", "format": "functional, cell-based"}, "[42]": {"test_system": "MV4-11", "assay": "Induction of apoptosis in human MV4-11 cells assessed as activation of cleaved PARP at 5 to 50 nM measured after 24 hrs by Western blot analysis", "format": "functional, cell-based", "conditions": "dose 5-50 nM"}, "[43]": {"test_system": "MV4-11", "assay": "Antitumor activity against human MV4-11 cells xenografted in Nu/Nu mouse assessed as inhibition of tumor growth at 7.5 mg/kg, po administered for 21 consecutive days by digital caliper method relative to control", "format": "functional", "conditions": "MV4-11, po, 504 h, time 21 day"}}, "note": "Active and inactive are the calls of the source. The rule behind the calls is not given here."}
{"smiles": "Cc1n[nH]c2ccc(-c3cc(N[C@@H](CO)c4ccccc4)cnc3Cl)cc12", "values": [{"measurement": "Activity", "setting": "[1]", "value": 76.29, "unit": "%"}, {"measurement": "AUC(0-inf)", "setting": "[2]", "value": 558, "unit": "ng·h/mL"}, {"measurement": "IC50", "setting": "[3]", "value": 3.2, "unit": "nM"}, {"measurement": "Activity", "setting": "[4]", "value": 94.45, "unit": "%"}, {"measurement": "IC50", "setting": "[5]", "value": 2.1, "unit": "nM"}, {"measurement": "IC50", "setting": "[6]", "value": 21, "unit": "nM"}, {"measurement": "IC50", "setting": "[7]", "value": "> 1000", "unit": "nM"}, {"measurement": "Cmax", "setting": "[8]", "value": 1570, "unit": "ng/mL"}, {"measurement": "IC50", "setting": "[9]", "value": 13, "unit": "nM"}, {"measurement": "Activity", "setting": "[10]", "value": 371, "unit": "mm3"}, {"measurement": "AUC(0-t) at 24 h", "setting": "[11]", "value": 553, "unit": "ng·h/mL"}, {"measurement": "Activity", "setting": "[12]", "value": "inactive"}, {"measurement": "IC50", "setting": "[13]", "value": 46, "unit": "nM"}, {"measurement": "IC50", "setting": "[14]", "value": "> 1000", "unit": "nM"}, {"measurement": "IC50", "setting": "[15]", "value": "> 1000", "unit": "nM"}, {"measurement": "IC50", "setting": "[16]", "value": "> 1000", "unit": "nM"}, {"measurement": "bioavailability", "setting": "[17]", "value": 33.7, "unit": "%"}, {"measurement": "IC50", "setting": "[18]", "value": 1.6, "unit": "nM"}, {"measurement": "inhibition", "setting": "[19]", "value": "inactive"}, {"measurement": "Activity", "setting": "[20]", "value": 0.84, "unit": "%"}, {"measurement": "MRT", "setting": "[21]", "value": 43.8, "unit": "min"}, {"measurement": "IC50", "setting": "[22]", "value": "> 1000", "unit": "nM"}, {"measurement": "IC50", "setting": "[23]", "value": "> 1000", "unit": "nM"}, {"measurement": "IC50", "setting": "[24]", "value": "> 1000", "unit": "nM"}, {"measurement": "AUC(0-t) at 24 h", "setting": "[25]", "value": 1760, "unit": "ng·h/mL"}, {"measurement": "IC50", "setting": "[26]", "value": "> 1000", "unit": "nM"}, {"measurement": "inhibition", "setting": "[27]", "value": "inactive"}, {"measurement": "IC50", "setting": "[28]", "value": 5.4, "unit": "nM"}, {"measurement": "IC50", "setting": "[29]", "value": "> 1000", "unit": "nM"}, {"measurement": "Activity", "setting": "[30]", "value": 3.23, "unit": "%"}, {"measurement": "IC50", "setting": "[31]", "value": "> 1000", "unit": "nM"}, {"measurement": "IC50", "setting": "[32]", "value": 44, "unit": "nM"}, {"measurement": "Activity", "setting": "[33]", "value": 2.86}, {"measurement": "IC50", "setting": "[34]", "value": "> 1000", "unit": "nM"}, {"measurement": "IC50", "setting": "[35]", "value": "> 1000", "unit": "nM"}, {"measurement": "IC50", "setting": "[36]", "value": "> 1000", "unit": "nM"}, {"measurement": "IC50", "setting": "[37]", "value": "> 1000", "unit": "nM"}, {"measurement": "IC50", "setting": "[38]", "value": "> 1000", "unit": "nM"}, {"measurement": "Activity", "setting": "[39]", "value": 3.59, "unit": "%"}, {"measurement": "IC50", "setting": "[40]", "value": "> 1000", "unit": "nM"}, {"measurement": "IC50", "setting": "[41]", "value": 8.4, "unit": "nM"}, {"measurement": "Activity", "setting": "[42]", "value": "Active"}, {"measurement": "inhibition in vivo at 7.5 mg/kg", "setting": "[43]", "value": 77.4, "unit": "%"}]}
